Measurements reported in patent publication US20130203789A1, “Novel Inhibitors of LYN Kinase and Methods Using Same” (VASSA INFORMATICS, priority 2012, published 2013).

Assays:
LYN = conditions: BT549 cells, Western blot; cited from earlier work
[1] = system: mesenchymal breast cancer lines; conditions: at concentrations that inhibit LYN kinase activity; cited from earlier work
[2] = system: mesenchymal breast cancer lines; conditions: at concentrations that inhibit LYN kinase activity; cited from earlier work; remark: listed apart in the source
Pim-1(h) = target: T1, Pim-1(h) (Homo sapiens, UniProt P11309); assay: Millipore kinase profiling, Pim-1; type: biochemical; conditions: 100 μM concentration
T1 construct: purchased Millipore (Dundee UK), contract testing service
T1 sequence (P11309 whole entry): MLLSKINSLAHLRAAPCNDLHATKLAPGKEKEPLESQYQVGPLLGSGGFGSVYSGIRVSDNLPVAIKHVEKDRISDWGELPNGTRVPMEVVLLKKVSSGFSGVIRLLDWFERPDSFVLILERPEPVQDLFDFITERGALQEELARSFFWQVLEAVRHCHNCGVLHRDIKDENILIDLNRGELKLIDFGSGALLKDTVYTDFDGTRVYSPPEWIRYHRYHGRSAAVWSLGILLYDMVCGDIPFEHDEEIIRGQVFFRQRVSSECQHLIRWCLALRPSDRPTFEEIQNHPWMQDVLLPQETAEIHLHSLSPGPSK
Experimental: (§1) The three compounds identified in Example 1 were tested for kinase activity at Millipore (Dundee UK). The compounds were shipped as 10 mM stocks in DMSO as per Millipore testing standards. The testing consisted of two initial phases:
(§2) (a) Profiling against a set of approximately 60 kinases, selected as representative of all kinases and current kinase drug targets, to determine the selectivity of the compounds; and, (b) IC50 testing againstr EGFR, the kinase target of the initial search template molecule.

CamK1 = CamK1 (Homo sapiens, UniProt Q14012); assay: Kinase profiling, CamK1; type: biochemical; conditions: 100 μM concentration
Experimental: (§3) FIG. 9 is a schematic kinome tree illustrating the evolutionary relationships between 299 kinases. The inhibition of 68 representative kinases by VI301 at 100 μM concentration was evaluated.
as §1, §2

Lyn(h) = target: T2, Lyn(h) (Homo sapiens, UniProt P07948); assay: Millipore kinase profiling, Lyn; type: biochemical; conditions: 100 μM concentration
T2 construct: purchased Millipore (Dundee UK), contract testing service
T2 sequence (P07948 1-491 isoform P07948-2): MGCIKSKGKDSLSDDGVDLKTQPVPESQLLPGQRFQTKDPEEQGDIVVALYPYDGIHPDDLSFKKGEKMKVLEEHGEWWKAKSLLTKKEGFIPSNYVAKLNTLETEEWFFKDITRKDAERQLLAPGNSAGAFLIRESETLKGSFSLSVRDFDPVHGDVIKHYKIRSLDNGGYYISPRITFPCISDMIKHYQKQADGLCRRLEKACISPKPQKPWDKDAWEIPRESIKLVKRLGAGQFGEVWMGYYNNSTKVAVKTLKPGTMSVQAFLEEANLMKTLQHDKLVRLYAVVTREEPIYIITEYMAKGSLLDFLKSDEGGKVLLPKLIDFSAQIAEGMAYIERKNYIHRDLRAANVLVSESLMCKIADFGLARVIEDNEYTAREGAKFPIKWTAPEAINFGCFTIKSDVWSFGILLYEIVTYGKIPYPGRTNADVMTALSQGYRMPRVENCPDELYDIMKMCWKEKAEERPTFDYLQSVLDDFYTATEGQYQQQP
Experimental: as §1, §2

WNK3(h) = target: T3, WNK3(h) (Homo sapiens, UniProt Q9BYP7); assay: Millipore kinase profiling, WNK3; type: biochemical; conditions: 100 μM concentration
T3 construct: purchased Millipore (Dundee UK), contract testing service
T3 sequence (Q9BYP7 whole entry): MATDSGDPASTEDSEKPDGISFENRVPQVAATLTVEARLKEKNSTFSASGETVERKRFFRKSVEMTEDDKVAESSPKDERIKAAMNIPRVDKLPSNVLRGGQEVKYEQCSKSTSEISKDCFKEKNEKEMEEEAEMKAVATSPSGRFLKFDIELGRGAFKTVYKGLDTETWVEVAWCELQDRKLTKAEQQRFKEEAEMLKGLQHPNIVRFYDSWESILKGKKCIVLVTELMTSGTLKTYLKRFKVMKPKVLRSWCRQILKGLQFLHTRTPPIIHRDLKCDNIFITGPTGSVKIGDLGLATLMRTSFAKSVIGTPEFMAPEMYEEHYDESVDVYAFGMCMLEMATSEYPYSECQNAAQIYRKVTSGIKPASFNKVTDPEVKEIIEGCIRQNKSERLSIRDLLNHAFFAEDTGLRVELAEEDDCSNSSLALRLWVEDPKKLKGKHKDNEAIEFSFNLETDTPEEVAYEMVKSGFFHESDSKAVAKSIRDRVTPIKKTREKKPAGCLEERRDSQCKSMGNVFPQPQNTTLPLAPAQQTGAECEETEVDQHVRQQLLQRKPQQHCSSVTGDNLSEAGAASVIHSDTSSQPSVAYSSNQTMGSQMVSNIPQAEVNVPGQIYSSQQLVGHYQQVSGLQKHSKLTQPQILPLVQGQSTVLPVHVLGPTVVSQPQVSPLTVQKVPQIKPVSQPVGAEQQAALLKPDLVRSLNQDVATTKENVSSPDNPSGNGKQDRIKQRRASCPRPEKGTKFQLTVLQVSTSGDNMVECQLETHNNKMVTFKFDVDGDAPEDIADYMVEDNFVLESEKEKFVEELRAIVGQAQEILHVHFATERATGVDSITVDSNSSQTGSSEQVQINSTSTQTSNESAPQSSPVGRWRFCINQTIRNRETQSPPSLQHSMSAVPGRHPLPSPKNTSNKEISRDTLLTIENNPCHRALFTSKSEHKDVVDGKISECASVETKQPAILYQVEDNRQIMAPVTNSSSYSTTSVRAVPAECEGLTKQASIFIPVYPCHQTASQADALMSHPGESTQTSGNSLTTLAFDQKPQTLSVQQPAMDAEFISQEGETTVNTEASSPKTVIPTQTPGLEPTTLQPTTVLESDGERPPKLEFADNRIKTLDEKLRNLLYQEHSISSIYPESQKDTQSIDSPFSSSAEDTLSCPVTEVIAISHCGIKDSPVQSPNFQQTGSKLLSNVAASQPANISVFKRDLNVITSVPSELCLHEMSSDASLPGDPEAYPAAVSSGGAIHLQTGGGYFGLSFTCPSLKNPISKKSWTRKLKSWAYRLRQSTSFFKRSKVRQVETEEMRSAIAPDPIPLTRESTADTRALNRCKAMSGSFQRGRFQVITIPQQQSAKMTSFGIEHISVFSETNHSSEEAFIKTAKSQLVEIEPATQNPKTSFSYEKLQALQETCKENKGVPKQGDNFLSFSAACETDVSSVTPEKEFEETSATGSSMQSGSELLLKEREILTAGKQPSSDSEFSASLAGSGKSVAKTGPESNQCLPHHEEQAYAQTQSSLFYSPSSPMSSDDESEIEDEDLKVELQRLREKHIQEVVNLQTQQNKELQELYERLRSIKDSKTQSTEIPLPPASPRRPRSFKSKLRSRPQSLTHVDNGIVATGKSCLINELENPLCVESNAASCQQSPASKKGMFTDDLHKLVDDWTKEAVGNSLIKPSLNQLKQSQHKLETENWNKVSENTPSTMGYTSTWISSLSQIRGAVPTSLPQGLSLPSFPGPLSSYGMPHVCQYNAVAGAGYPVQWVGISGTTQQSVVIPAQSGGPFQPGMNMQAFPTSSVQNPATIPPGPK
Experimental: as §1, §2

Abl kinase (BCR-Abl) = Abl kinase (BCR-Abl) (Homo sapiens, UniProt P00519); assay: Kinase profiling, Abl; type: biochemical; conditions: 100 μM concentration
Chain of Abl kinase (BCR-Abl) (P00519 27-1130 limits assumed): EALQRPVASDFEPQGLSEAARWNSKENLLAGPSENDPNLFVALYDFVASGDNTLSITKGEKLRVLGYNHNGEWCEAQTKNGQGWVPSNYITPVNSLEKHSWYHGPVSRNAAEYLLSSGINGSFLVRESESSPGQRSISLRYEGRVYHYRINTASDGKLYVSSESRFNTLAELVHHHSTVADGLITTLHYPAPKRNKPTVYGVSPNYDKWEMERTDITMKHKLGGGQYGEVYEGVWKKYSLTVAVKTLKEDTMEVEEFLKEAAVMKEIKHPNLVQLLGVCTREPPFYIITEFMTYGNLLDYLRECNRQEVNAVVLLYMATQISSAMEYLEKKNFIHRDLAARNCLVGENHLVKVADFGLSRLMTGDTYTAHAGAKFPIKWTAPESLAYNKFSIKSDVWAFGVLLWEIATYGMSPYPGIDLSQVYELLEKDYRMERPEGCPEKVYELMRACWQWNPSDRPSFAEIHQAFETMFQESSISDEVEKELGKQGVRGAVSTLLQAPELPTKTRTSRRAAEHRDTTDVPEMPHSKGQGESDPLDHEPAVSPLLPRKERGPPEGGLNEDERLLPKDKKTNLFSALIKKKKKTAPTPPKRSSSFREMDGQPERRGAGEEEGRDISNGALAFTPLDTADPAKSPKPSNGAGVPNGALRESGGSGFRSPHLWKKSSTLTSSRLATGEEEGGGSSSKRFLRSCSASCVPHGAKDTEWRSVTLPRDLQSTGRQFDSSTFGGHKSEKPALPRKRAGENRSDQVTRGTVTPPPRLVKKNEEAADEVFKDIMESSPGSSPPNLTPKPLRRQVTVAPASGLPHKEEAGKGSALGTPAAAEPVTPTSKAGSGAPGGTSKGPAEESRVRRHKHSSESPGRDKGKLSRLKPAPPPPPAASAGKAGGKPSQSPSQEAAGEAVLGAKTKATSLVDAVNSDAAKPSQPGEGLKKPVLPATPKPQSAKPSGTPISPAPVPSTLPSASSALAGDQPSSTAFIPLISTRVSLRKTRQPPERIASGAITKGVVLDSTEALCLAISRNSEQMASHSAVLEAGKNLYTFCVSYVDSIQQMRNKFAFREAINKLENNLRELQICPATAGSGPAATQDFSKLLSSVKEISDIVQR
Experimental: as §3, §1, §2

inhibition at 100 µM (Pim-1(h)) [%]	inhibition at 100 µM (CamK1) [%]	inhibition at 100 µM (Lyn(h)) [%]	inhibition of LYN kinase (in words) (Lyn(h))	inhibition at 100 µM (WNK3(h)) [%]	inhibition at 100 µM (Abl kinase (BCR-Abl)) [%]	Structure (SMILES)	phosphorylated (activated) LYN (LYN)	cell proliferation [1]	cell invasion [2]
–	–	–	–	–	–	Cc1nc(Nc2ncc(C(=O)Nc3c(C)cccc3Cl)s2)cc(N2CCN(CCO)CC2)n1 [Dasatinib, N-(2-chloro-6-methylphenyl)-2-[[6-[4-(2-hydroxyethyl)-1-piperazinyl]-2-methyl-4-pyrimidinyl]amino]-5-thiazole carboxamide]	decreased phosphorylated (activated) LYN	not proliferation	blocked invasion
12	26	95	good inhibition	3	106	Cc1nn2c(ncc3c(=O)n(-c4ccccc4)ccc32)c1-c1ccccc1 [VI301, 2-methyl-3,7-diphenylpyrazolo[1,5-a]pyrido[3,4-e]pyrimidin-6(7H)-one]	–	–	–
